Data taken from US8809376B2, “Indanyloxydihydrobenzofuranylacetic acids” (Boehringer Ingelheim International GmbH, priority 2012, dated 2014).
pEC50: −log10 of the molar value.

These molecules were tested against T1, human GPR40 receptor (Homo sapiens, UniProt O14842) (assay: Assay II: IP1 accumulation (IPOne assay system) in 1321N1 cells stably expressing human GPR40 receptor). Settings: stimulated 1 h at 37° C., 5% CO2, LiCl 50 mM.
Format: cell-based
Description: IP1 accumulation measurements using the IPOne assay system—1321N1 cells stably expressing human GPR40 receptor (Euroscreen, Belgium) are seeded 24 h before the assay in white 384-well plates in culture medium containing 10% FCS, 1% Na-Pyruvate and 400 μg/mL G418. IP1 is assayed according to the manufacturer's description (Cisbio Bioassays, France). In brief, the assay is started by substitution of the culture medium by stimulation buffer (Hepes 10 mM, CaCl2 1 mM, MgCl2 0.5 mM, KCl 4.2 mM, NaCl 146 mM, glucose 5.5 mM and LiCl 50 mM, pH 7.4). Cells are stimulated for 1 h at 37° C., 5% CO2 by addition of the compounds that are diluted in stimulation buffer containing LiCl. Assays are stopped by adding HTRF-conjugates (IP1-d2 and Anti-IP1 cryptate Tb) and lysis buffer, provided by the manufacturer. After an incubation time of 1 h at room temperature plates are measured using an EnVision™, Perkin Elmer. The obtained fluorescence ratios at 665/615 […] are then used to calculate the pEC50 values using Assay Explorer 3.3 Software (Accelrys, Inc.) by interpolation using an IP1 reference curve and subsequent sigmoidal curve fitting allowing for a variable hill slope.

T1 sequence (O14842 whole entry): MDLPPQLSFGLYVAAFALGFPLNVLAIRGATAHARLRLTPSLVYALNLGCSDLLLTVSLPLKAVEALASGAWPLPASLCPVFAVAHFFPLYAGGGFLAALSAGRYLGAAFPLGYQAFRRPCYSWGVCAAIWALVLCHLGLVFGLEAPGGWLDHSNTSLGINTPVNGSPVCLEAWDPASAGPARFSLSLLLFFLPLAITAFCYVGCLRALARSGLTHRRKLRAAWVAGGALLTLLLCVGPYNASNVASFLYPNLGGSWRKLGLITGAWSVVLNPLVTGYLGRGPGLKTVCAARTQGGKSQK

Row | SMILES | pEC50
1 | O=C(O)C[C@@H]1COc2cc(O[C@@H]3CCc4c(Cc5ccc(F)cc5F)ccc(F)c43)ccc21 [Example 21, {(S)-6-[(R)-4-(2,4-Difluoro-benzyl)-7-fluoro-indan-1-yloxy]-2,3-dihydrobenzofuran-3-yl}-acetic acid] | 7.82
2 | N#Cc1ccc2c(c1Cc1ccccc1F)CC[C@H]2Oc1ccc2c(c1)OC[C@H]2CC(=O)O [Example 22, {(S)-6-[(R)-5-Cyano-4-(2-fluoro-benzyl)-indan-1-yloxy]-2,3-dihydro-benzofuran-3-yl}-acetic acid] | 8.22
3 | O=C(O)C[C@@H]1COc2cc(O[C@@H]3CCc4c3ccc(C(F)(F)F)c4Cc3ccc(F)cc3F)ccc21 [Example 26, {(S)-6-[(R)-4-(2,4-Difluoro-benzyl)-5-trifluoromethyl-indan-1-yloxy]-2,3-dihydrobenzofuran-3-yl}-acetic acid] | 8.70
4 | N#Cc1ccc2c(c1Cc1cccc(F)c1)CC[C@H]2Oc1ccc2c(c1)OC[C@H]2CC(=O)O [Example 24, {(S)-6-[(R)-5-Cyano-4-(3-fluoro-benzyl)-indan-1-yloxy]-2,3-dihydro-benzofuran-3-yl}-acetic acid] | 7.92
5 | COc1cccc(Cc2c(C(F)(F)F)ccc3c2CC[C@H]3Oc2ccc3c(c2)OC[C@H]3CC(=O)O)c1 [Example 27, {(S)-6-[(R)-4-(3-Methoxy-benzyl)-5-trifluoromethyl-indan-1-yloxy]-2,3-dihydrobenzofuran-3-yl}-acetic acid] | 8.30
6 | CS(=O)(=O)c1ccc(Cc2c(C(F)(F)F)ccc3c2CC[C@H]3Oc2ccc3c(c2)OC[C@H]3CC(=O)O)cc1 [Example 17, {(S)-6-[(R)-4-(4-Methylsulfonyl-benzyl)-5-trifluoromethyl-indan-1-yloxy]-2,3-dihydro-benzofuran-3-yl}-acetic acid] | 7.62
7 | O=C(O)C[C@@H]1COc2cc(O[C@@H]3CCc4c3ccc(C(F)(F)F)c4Cc3ccc(F)cc3)ccc21 [Example 30, {(S)-6-[(R)-4-(4-Fluoro-benzyl)-5-trifluoromethyl-indan-1-yloxy]-2,3-dihydrobenzofuran-3-yl}-acetic acid] | 8.70
8 | N#Cc1cccc(Cc2c(C(F)(F)F)ccc3c2CC[C@H]3Oc2ccc3c(c2)OC[C@H]3CC(=O)O)c1 [Example 34, {(S)-6-[(R)-4-(3-Cyano-benzyl)-5-trifluoromethyl-indan-1-yloxy]-2,3-dihydrobenzofuran-3-yl}-acetic acid] | 8.40
9 | O=C(O)C[C@@H]1COc2cc(O[C@@H]3CCc4c3ccc(C(F)(F)F)c4Cc3ccc(Cl)cc3)ccc21 [Example 37, {(S)-6-[(R)-4-(4-Chloro-benzyl)-5-trifluoromethyl-indan-1-yloxy]-2,3-dihydrobenzofuran-3-yl}-acetic acid] | 8.40
10 | O=C(O)C[C@@H]1COc2cc(O[C@@H]3CCc4c3ccc(C(F)(F)F)c4Cc3ccc(O)cc3)ccc21 [Example 25, {(S)-6-[(R)-4-(4-Hydroxy-benzyl)-5-trifluoromethyl-indan-1-yloxy]-2,3-dihydrobenzofuran-3-yl}-acetic acid] | 8.70
11 | N#Cc1ccc2c(c1Cc1c(F)cccc1F)CC[C@H]2Oc1ccc2c(c1)OC[C@H]2CC(=O)O [Example 28, {(S)-6-[(R)-5-Cyano-4-(2,6-difluoro-benzyl)-indan-1-yloxy]-2,3-dihydro-benzofuran-3-yl}-acetic acid] | 8.30
12 | O=C(O)C[C@@H]1COc2cc(O[C@@H]3CCc4c(Cc5cc(F)cc(F)c5)ccc(F)c43)ccc21 [Example 18, {(S)-6-[(R)-4-(3,5-Difluoro-benzyl)-7-fluoro-indan-1-yloxy]-2,3-dihydrobenzofuran-3-yl}-acetic acid] | 7.57
13 | O=C(O)C[C@@H]1COc2cc(O[C@@H]3CCc4c3ccc(C(F)(F)F)c4Cc3cccc(F)c3)ccc21 [Example 29, {(S)-6-[(R)-4-(3-Fluoro-benzyl)-5-trifluoromethyl-indan-1-yloxy]-2,3-dihydrobenzofuran-3-yl}-acetic acid] | 8.52
14 | O=C(O)C[C@@H]1COc2cc(O[C@@H]3CCc4c3ccc(C(F)(F)F)c4Cc3ccccc3F)ccc21 [Example 31, {(S)-6-[(R)-4-(2-Fluoro-benzyl)-5-trifluoromethyl-indan-1-yloxy]-2,3-dihydrobenzofuran-3-yl}-acetic acid] | 8.70
15 | Cc1ccccc1Cc1c(C(F)(F)F)ccc2c1CC[C@H]2Oc1ccc2c(c1)OC[C@H]2CC(=O)O [Example 35, {(S)-6-[(R)-4-(2-Methyl-benzyl)-5-trifluoromethyl-indan-1-yloxy]-2,3-dihydrobenzofuran-3-yl}-acetic acid] | 8.70
16 | N#Cc1ccccc1Cc1c(C(F)(F)F)ccc2c1CC[C@H]2Oc1ccc2c(c1)OC[C@H]2CC(=O)O [Example 36, {(S)-6-[(R)-4-(2-Cyano-benzyl)-5-trifluoromethyl-indan-1-yloxy]-2,3-dihydrobenzofuran-3-yl}-acetic acid] | 8.70
17 | COc1ccc(Cc2c(C(F)(F)F)ccc3c2CC[C@H]3Oc2ccc3c(c2)OC[C@H]3CC(=O)O)cc1 [Example 33, {(S)-6-[(R)-4-(4-Methoxy-benzyl)-5-trifluoromethyl-indan-1-yloxy]-2,3-dihydrobenzofuran-3-yl}-acetic acid] | 8.70
18 | N#Cc1ccc2c(c1Cc1ccc(F)cc1)CC[C@H]2Oc1ccc2c(c1)OC[C@H]2CC(=O)O [Example 23, {(S)-6-[(R)-5-Cyano-4-(4-fluoro-benzyl)-indan-1-yloxy]-2,3-dihydro-benzofuran-3-yl}-acetic acid] | 7.96
19 | N#Cc1ccc(Cc2ccc(F)c3c2CC[C@H]3Oc2ccc3c(c2)OC[C@H]3CC(=O)O)cc1 [Example 20, {(S)-6-[(R)-4-(4-Cyano-benzyl)-7-fluoro-indan-1-yloxy]-2,3-dihydrobenzofuran-3-yl}-acetic acid] | 6.23
20 | COc1ccc(OC)c(Cc2c(C(F)(F)F)ccc3c2CC[C@H]3Oc2ccc3c(c2)OC[C@H]3CC(=O)O)c1 [Example 40, {(S)-6-[(R)-4-(2,5-Dimethoxy-benzyl)-5-trifluoromethyl-indan-1-yloxy]-2,3-dihydrobenzofuran-3-yl}-acetic acid] | 8.30
21 | COc1ccc(Cc2c(C(F)(F)F)ccc3c2CC[C@H]3Oc2ccc3c(c2)OC[C@H]3CC(=O)O)cn1 [Example 38] | 9.00
22 | N#Cc1ccc2c(c1Cc1cccc(F)c1F)CC[C@H]2Oc1ccc2c(c1)OC[C@H]2CC(=O)O [Example 32, {(S)-6-[(R)-5-Cyano-4-(2,3-difluoro-benzyl)-indan-1-yloxy]-2,3-dihydro-benzofuran-3-yl}-acetic acid] | 8.10
23 | O=C(O)C[C@@H]1COc2cc(O[C@@H]3CCc4c(Cc5c(F)cccc5F)ccc(F)c43)ccc21 [Example 19, {(S)-6-[(R)-4-(2,6-Difluoro-benzyl)-7-fluoro-indan-1-yloxy]-2,3-dihydrobenzofuran-3-yl}-acetic acid] | 7.64

Each molecule was assayed against T1, human GPR40 receptor (assay: Assay I: IP1 accumulation (IPOne assay system) in 1321N1 cells stably expressing human GPR40 receptor). Settings: stimulated 1 hour at 37° C., 10% CO2, LiCl 50 mM.
Format: cell-based
Description: IP1 accumulation measurements using the IPOne assay system—1321N1 cells stably expressing human GPR40 receptor (Euroscreen, Belgium) are seeded 24 h before the assay in black clear-bottom collagen-coated 384-well plates in culture medium containing 10% FCS, 1% Na-Pyruvate and 400 μg/mL G418. IP1 is assayed according to the Manufacturer's description (Cisbio Bioassays, France). In brief, the assay is started by substitution of the culture medium by stimulation buffer (Hepes 10 mM, CaCl2 1 mM, MgCl2 0.5 mM, KCl 4.2 mM, NaCl 146 mM and glucose 5.5 mM, pH 7.4) without LiCl. Cells are stimulated for 1 hour at 37° C., 10% CO2 by addition of the compounds that are diluted in stimulation buffer containing LiCl yielding a final LiCl concentration of 50 mM. Assays are stopped by adding HTRF-conjugates (IP1-d2 and Anti-IP1 cryptate Tb) and lysis buffer, provided by the manufacturer. After an incubation time of 1 hour at room temperature plates are measured using an EnVision™, Perkin Elmer. The obtained fluorescence ratios at 665/615 nM are then used to calculate the pEC50 values using GraphPad Prism 5 (Graphpad Software Inc, USA) by interpolation using an IP1 reference curve and subsequent sigmoidal curve fitting allowing for a variable hill slope.

Row | SMILES | pEC50
24 | N#Cc1ccc2c(c1Cc1ccccc1)CC[C@H]2Oc1ccc2c(c1)OC[C@H]2CC(=O)O [Example 1, {(S)-6-[(R)-4-Benzyl-5-cyano-indan-1-yloxy]-2,3-dihydro-benzofuran-3-yl}-acetic acid] | 8.30
25 | COc1ccc(Cc2c(C#N)ccc3c2CC[C@H]3Oc2ccc3c(c2)OC[C@H]3CC(=O)O)cc1 [Example 4, {(S)-6-[(R)-5-Cyano-4-(4-methoxy-benzyl)-indan-1-yloxy]-2,3-dihydro-benzofuran-3-yl}-acetic acid] | 8.30
26 | O=C(O)C[C@@H]1COc2cc(O[C@@H]3CCc4c3ccc(C(F)(F)F)c4Cc3ccccc3)ccc21 [Example 10, {(S)-6-[(R)-4-Benzyl-5-trifluoromethyl-indan-1-yloxy]-2,3-dihydro-benzofuran-3-yl}-acetic acid] | 8.52
27 | COc1cccc(Cc2ccc(F)c3c2CC[C@H]3Oc2ccc3c(c2)OC[C@H]3CC(=O)O)c1 [Example 14, {(S)-6-[(R)-7-Fluoro-4-(3-methoxybenzyl)-indan-1-yloxy]-2,3-dihydrobenzofuran-3-yl}-acetic acid] | 8.40
28 | O=C(O)C[C@@H]1COc2cc(O[C@@H]3CCc4c(Cc5ccccc5)ccc(F)c43)ccc21 [Example 16, {(S)-6-[(R)-4-Benzyl-7-fluoro-indan-1-yloxy]-2,3-dihydrobenzofuran-3-yl}-acetic acid] | 8.30
29 | COc1cccc(Cc2c(C#N)ccc3c2CC[C@H]3Oc2ccc3c(c2)OC[C@H]3CC(=O)O)c1 [Example 3, {(S)-6-[(R)-5-Cyano-4-(3-methoxy-benzyl)-indan-1-yloxy]-2,3-dihydro-benzofuran-3-yl}-acetic acid] | 7.62
